Measurements taken from US8889699B2, “5-fluorouracil derivative” (Delta-Fly Pharma, Inc., priority 2009, dated 2014).
Read-outs that look alike come from different tables or passages of the source.

How the values were obtained:
sarcoma 180 cells = assay: Inhibition of intracellular phosphorylation of 5-FU in cancer cells; type: cell-based, mouse; conditions: for inhibition at 10 µM / inhibition at 100 µM: Mus musculus, Sarcoma-180, 0.5 h
Protocol: (§1) • (a) Test liquid preparation 1: Compound I-2 or I-10 of the present invention was dissolved to a concentration of 1 mM in cold physiological saline. The resulting product was further diluted 10-fold with physiological saline, yielding a 100-μM solution. • (b) Test liquid preparation 2: As an OPRT inhibitor, which inhibits the phosphorylation of 5-FU, citrazinic acid (Citra.A.) was dissolved to a concentration of 1 mM in cold physiological saline, and further diluted 10-fold with physiological saline, yielding a 100-μM solution. • (c) Preparation of cancer cell suspension: Ascites-type sarcoma 180 cells were preliminarily transplanted intraperitoneally into an ICR mouse and proliferated therein for use in the test as raw (intact) cells. The proliferated cells were isolated and then washed with physiological saline. […] Immediately after the completion of the reaction, 4 mL of a cold Hanks solution was added to the reaction solution, and the cells were washed and separated by centrifugation. After this procedure was repeated twice, 2 mL of a cold 5% trichloroacetic acid (TCA) solution was added to the cell pellet to disrupt the cells, and 5-FU and its nucleotide metabolites were extracted. Subsequently, a portion of the nucleic acid extract was applied to a silica gel 60F254 plate and developed with a mixed liquid comprising chloroform-methanol-acetic acid (17:3:1) to isolate the nucleotide moiety. The radioactivity thereof was measured and the concentration of 5-FU phosphorylation was measured.
as §1, with “1: Compounds I-9, I-11, I-12, and I-13” for “1: Compound I-2 or I-10”, “invention were separately” for “invention was”, “saline. Each of the” for “saline. The”, “resulting products” for “resulting product”, “acid” for “acid (Citra.A.)”

[1] = system: human gastric cancer strain (SC-2); conditions: 14 days, day 15; for Average weight change (%) / Tumor proliferation inhibition ratio (%): Test Example 3; for BWC (% initial) / IR (%): Test Example 6
Protocol: The resulting product was stirred with a stirrer at room temperature for about 10 minutes. […] Thereafter, ultrasonic treatment was performed under ice cooling for about 5 minutes, thereby obtaining a BOF-A2 drug liquid to be used at a dose of 14 mg/kg/day, 21 mg/kg/day, or 28 mg/kg/day. • (f) Experiment: The human gastric cancer strain (SC-2) was subcutaneously transplanted into the back of a BALB/cA-nu mouse and preliminarily proliferated therein. The proliferated strain was extracted, cut into about 2 mm square pieces with scissors in physiological saline, and subcutaneously inoculated to the right axillary region of mice of the same strain, 5 to 6 weeks of age, using a transplantation needle. […] Then, drug administration was initiated from the next day. Each of the test liquids shown in (a) to (e) above was administered orally to the mice in each of the test drug groups using a sonde for oral administration at a dose of 0.1 ml per 10 g body weight once a day for 14 continuous days. In the same manner as the above, the cancer-bearing mice in the control group were subjected to oral administration of only 0.5% HPMC liquid for 14 continuous days.
The tumor volume of each mouse in each group before the initiation of the treatment, on day 3, day 5, day 8 (1 week after), day 11, and day 15 (2 weeks after), i.e., after termination of the administration, was calculated using Equation 1 below, and respective relative tumor volume (RTV) relative to the tumor volume at the time of initiation of the treatment was calculated. In relation to the antitumor effect, the average value of the tumor proliferation inhibition ratio (IR; %) was calculated from the average tumor volume of each treatment group on day 15 (after termination of the treatment) relative to that of the control group on day 15, using Equation 2. […] Along therewith, a weight change ratio was calculated from the body weight of the mice at the time of the termination of the drug administration relative to the body weight of the mice at the time of the initiation of the administration, using Equation 3. […] Tumor volume(mm^3)=(major axis)×(minor axis)^2×½ Equation 1: Tumor proliferation inhibition ratio(IR, %)=[1−(average tumor volume of treatment group)/(average tumor volume of control group)]×100 Equation 2: Average weight change ratio(%)=[(average weight on Day 15)−(average weight on Day 1)]/(average weight on Day 1)×100 Equation 3: […]
The resulting product was stirred with a stirrer at room temperature for about 10 minutes. […] The proliferated strain was extracted, cut into about 2 mm square pieces with scissors in physiological saline, and subcutaneously inoculated to the right axillary region of mice of the same strain, 5 to 6 weeks of age, using a transplantation needle. […] Then, drug administration was initiated from the next day. Each of the test liquids shown in (a) to (c) above was administered orally to the mice in each of the test drug groups using a sonde for oral administration at a dose of 0.1 ml per 10 g body weight once a day for 14 continuous days. In the same manner as the above, the cancer-bearing mice in the control group were subjected to oral administration of only 0.5% HPMC liquid for 14 continuous days.
The tumor volume of each mouse in each group before the initiation of the treatment, on day 3, day 5, day 8 (1 week after), day 11, and day 15 (2 weeks after), i.e., after termination of the administration, was calculated using Equation 1 below, and respective relative tumor volume (RTV) relative to the tumor volume at the time of initiation of the treatment was calculated. In relation to the antitumor effect, the average value of the tumor proliferation inhibition ratio (IR; %) was calculated from the average tumor volume of each treatment group on day 15 (after termination of the treatment) relative to that of the control group on day 15, using Equation 2.

[2] = Conc. 10 μM, 30 min. Incubation, 5-FU 2 μM, Table 6
[3] = Conc. 10 μM, 30 min, Table 3 run with control 60.93
[4] = Conc. 10 μM, 30 min, Table 3 run with control 63.32
[5] = Conc. 100 μM, 30 min. Incubation, 5-FU 2 μM, Table 6
[6] = Conc. 100 μM, 30 min, Table 3 run with control 60.93
[7] = Conc. 100 μM, 30 min, Table 3 run with control 63.32
[8] = Conc. 10 μM, 30 min. Incubation, 5-FU 2 μM, Table 6, read-out: Inhibition (%) of phosphorylation of 5-FU
[9] = Conc. 10 μM, 30 min, Table 3 run with control 60.93, read-out: % Inhibition of 5-FU phosphorylation
[10] = Conc. 10 μM, 30 min, Table 3 run with control 63.32, read-out: % Inhibition of 5-FU phosphorylation
[11] = Conc. 100 μM, 30 min. Incubation, 5-FU 2 μM, Table 6, read-out: Inhibition (%) of phosphorylation of 5-FU
[12] = Conc. 100 μM, 30 min, Table 3 run with control 60.93, read-out: % Inhibition of 5-FU phosphorylation
[13] = Conc. 100 μM, 30 min, Table 3 run with control 63.32, read-out: % Inhibition of 5-FU phosphorylation
[14] = concentration of 100 μM, reaction for 30 minutes, read-out: percent inhibition of intracellular phosphorylation of 5-FU
[15] = concentration of 10 μM, reaction for 30 minutes, read-out: percent inhibition of intracellular phosphorylation of 5-FU

O=C(O)c1cc(O)nc(O)c1 [Citra. A., citrazinic acid, reference compound]
RNA Fraction (sarcoma 180 cells; [2]): 62.19 pmol/1 × 10^7 cells
F-nucleotides (sarcoma 180 cells; [3]): 55.78 pmol/1 × 10^7 cells
F-nucleotides (sarcoma 180 cells; [4]): 62.19 pmol/1 × 10^7 cells
RNA Fraction (sarcoma 180 cells; [5]): 60.13 pmol/1 × 10^7 cells
F-nucleotides (sarcoma 180 cells; [6]): 51.72 pmol/1 × 10^7 cells
F-nucleotides (sarcoma 180 cells; [7]): 60.13 pmol/1 × 10^7 cells
inhibition at 10 µM (sarcoma 180 cells; [8]): 1.8%
inhibition at 10 µM (sarcoma 180 cells; [9]): 8.5%
inhibition at 10 µM (sarcoma 180 cells; [10]): 1.8%
inhibition at 100 µM (sarcoma 180 cells; [11]): 5%
inhibition at 100 µM (sarcoma 180 cells; [12]): 15.1%
inhibition at 100 µM (sarcoma 180 cells; [13]): 5.1%
inhibition at 100 µM (sarcoma 180 cells; [14]): 5 to 15%

CCOCn1cc(F)c(=O)n(C(=O)c2cccc(C(=O)Oc3cc(OC(=O)c4cc(O)nc(O)c4)c(Cl)cn3)c2)c1=O [Compound I-2, 3-{3-[4-(2,6-dihydroxyisonicotinoyloxy)-5-chloro-2-pyridyloxycarbonyl]benzoyl}-1-ethoxymethyl-5-fluorouracil]
F-nucleotides (sarcoma 180 cells; [3]): 47.26 pmol/1 × 10^7 cells
F-nucleotides (sarcoma 180 cells; [6]): 28.88 pmol/1 × 10^7 cells
inhibition at 10 µM (sarcoma 180 cells; [9]): 22.4%
inhibition at 100 µM (sarcoma 180 cells; [12]): 52.6%
inhibition at 10 µM (sarcoma 180 cells; [15]): 20 to 30%
inhibition at 100 µM (sarcoma 180 cells; [14]): 50 to 60%
Average weight change (%) ([1]; 15.0 mg/kg/day oral): −1.13%
Tumor proliferation inhibition ratio (%) ([1]; 15.0 mg/kg/day oral): 41.1%
Average weight change (%) ([1]; 22.5 mg/kg/day oral): −4.18%
Tumor proliferation inhibition ratio (%) ([1]; 22.5 mg/kg/day oral): 56.0%
Average weight change (%) ([1]; 30.0 mg/kg/day oral): 1.76%
Tumor proliferation inhibition ratio (%) ([1]; 30.0 mg/kg/day oral): 67.9%

CCOCn1cc(F)c(=O)n(C(=O)c2cccc(C(=O)Oc3cc(OC(=O)c4cc(OC(=O)C5CCCC5)nc(OC(=O)C5CCCC5)c4)c(Cl)cn3)c2)c1=O [Compound I-9, 3-{3-[4-(2,6-dicyclopentanecarbonyloxyisonicotinoyloxy)-5-chloro-2-pyridyloxycarbonyl]benzoyl}-1-ethoxymethyl-5-fluorouracil]
RNA Fraction (sarcoma 180 cells; [2]): 27.42 pmol/1 × 10^7 cells
RNA Fraction (sarcoma 180 cells; [5]): 23.61 pmol/1 × 10^7 cells
inhibition at 10 µM (sarcoma 180 cells; [8]): 56.7%
inhibition at 100 µM (sarcoma 180 cells; [11]): 62.7%
inhibition at 10 µM (sarcoma 180 cells; [15]): 35 to 57%
inhibition at 100 µM (sarcoma 180 cells; [14]): 56 to 63%
BWC (% initial) ([1]; 49.5 mg/kg oral): +4.67 % initial
IR (%) ([1]; 49.5 mg/kg oral, equivalent to 12.5 mg/kg of S-1): 29.5%

CCOCn1cc(F)c(=O)n(C(=O)c2cccc(C(=O)Oc3cc(OC(=O)c4cc(OC(C)=O)nc(OC(C)=O)c4)c(Cl)cn3)c2)c1=O [Compound I-10, 3-{3-[4-(2,6-diacetyloxyisonicotinoyloxy)-5-chloro-2-pyridyloxycarbonyl]benzoyl}-1-ethoxymethyl-5-fluorouracil]
F-nucleotides (sarcoma 180 cells; [4]): 40.71 pmol/1 × 10^7 cells
F-nucleotides (sarcoma 180 cells; [7]): 27.62 pmol/1 × 10^7 cells
inhibition at 10 µM (sarcoma 180 cells; [10]): 35.7%
inhibition at 100 µM (sarcoma 180 cells; [13]): 56.4%
inhibition at 10 µM (sarcoma 180 cells; [15]): 20 to 30%
inhibition at 100 µM (sarcoma 180 cells; [14]): 50 to 60%
Average weight change (%) ([1]; 25.7 mg/kg/day oral): 1.97%
Tumor proliferation inhibition ratio (%) ([1]; 25.7 mg/kg/day oral): 31.9%
Average weight change (%) ([1]; 34.2 mg/kg/day oral): −0.05%
Tumor proliferation inhibition ratio (%) ([1]; 34.2 mg/kg/day oral): 51.0%
Average weight change (%) ([1]; 42.8 mg/kg/day oral): −4.31%
Tumor proliferation inhibition ratio (%) ([1]; 42.8 mg/kg/day oral): 57.7%

CCOCn1cc(F)c(=O)n(C(=O)c2cccc(C(=O)Oc3cc(OC(=O)c4cc(OC(=O)CC)nc(OC(=O)CC)c4)c(Cl)cn3)c2)c1=O [Compound I-11, 3-{3-[4-(2,6-dipropionyloxyisonicotinoyloxy)-5-chloro-2-pyridyloxycarbonyl]benzoyl}-1-ethoxymethyl-5-fluorouracil]
RNA Fraction (sarcoma 180 cells; [2]): 40.71 pmol/1 × 10^7 cells
RNA Fraction (sarcoma 180 cells; [5]): 27.62 pmol/1 × 10^7 cells
inhibition at 10 µM (sarcoma 180 cells; [8]): 35.7%
inhibition at 100 µM (sarcoma 180 cells; [11]): 56.4%
inhibition at 10 µM (sarcoma 180 cells; [15]): 35 to 57%
inhibition at 100 µM (sarcoma 180 cells; [14]): 56 to 63%
BWC (% initial) ([1]; 26.7 mg/kg oral): +1.68 % initial
IR (%) ([1]; 26.7 mg/kg oral, equivalent to 7.5 mg/kg of S-1): 17.0%
BWC (% initial) ([1]; 35.6 mg/kg oral): +1.82 % initial
IR (%) ([1]; 35.6 mg/kg oral, equivalent to 10 mg/kg of S-1): 32.0%
BWC (% initial) ([1]; 44.5 mg/kg oral): −3.94 % initial
IR (%) ([1]; 44.5 mg/kg oral, equivalent to 12.5 mg/kg of S-1): 47.3%
